Experimental data reported in patent US7041461B2 (H. Lundbeck A/S, priority 1998, dated 2006).
Entries after “also recorded” stand apart in the source; their conditions may differ. Read-outs that look alike come from different tables or passages of the source. Non-standard residues stand in square brackets, D forms with d. Residues, ends and D or L forms follow the SMILES beside them. No end group written: not given here.

Assays:
[1] = biological target: T1, cloned rat NPFF1 receptor (Rattus norvegicus, UniProt Q9EP86); assay: Radioligand binding to cloned rat NPFF1 receptor, membranes of transiently transfected COS-7 cells
T1 construct: expressed in transfected cells; host or cells: COS-7 cells, transient; membranes
T1 sequence (Q9EP86 whole entry): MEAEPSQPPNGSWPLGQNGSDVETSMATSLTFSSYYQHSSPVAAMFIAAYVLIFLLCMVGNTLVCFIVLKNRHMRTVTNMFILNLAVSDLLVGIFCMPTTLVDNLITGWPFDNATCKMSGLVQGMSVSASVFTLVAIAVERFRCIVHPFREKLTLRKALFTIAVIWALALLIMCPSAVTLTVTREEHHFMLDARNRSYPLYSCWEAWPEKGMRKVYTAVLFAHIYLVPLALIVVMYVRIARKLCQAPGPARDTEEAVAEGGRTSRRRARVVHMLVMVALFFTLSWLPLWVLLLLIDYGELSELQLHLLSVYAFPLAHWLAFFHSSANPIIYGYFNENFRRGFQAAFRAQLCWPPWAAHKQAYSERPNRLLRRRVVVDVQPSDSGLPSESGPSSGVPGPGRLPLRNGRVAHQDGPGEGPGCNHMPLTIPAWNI
Description: Transfected cells from culture flasks are scraped into 5 ml of 20 mM Tris-HCl, 5 mM EDTA, pH 7.5, and lysed by sonication. The cell lysates are centrifuged at 1000 rpm for 5 min. at 4° C., and the supernatant is centrifuged at 30,000× g for 20 min. at 4° C. […] Optimal membrane suspension dilutions, defined as the protein concentration required to bind less than 10% of the added radioligand, […], unlabeled compounds, and binding buffer to a final volume of 250 μl. In equilibrium saturation binding assays membrane preparations are incubated in the presence of increasing concentrations of [^3H]-labeled compound.
(§1) Competition assay: 50 pM radioligand, 10–12 points. Binding reaction mixtures are incubated for 2 hr at 25° C., and the reaction stopped by filtration through a double layer of GF filters treated with 0.1% polyethyleneimine, using a cell harvester. Wash buffer: 50 mM Tris-HCl, 0.1% BSA. Radioactivity may be measured by scintillation counting and data are analyzed by a computerized non-linear regression program. Non-specific binding is defined as the amount of radioactivity remaining after incubation of membrane protein in the presence of 1 μM final concentration […]. Protein concentration may be measured by the Bradford method using Bio-Rad Reagent, with bovine serum albumin as a standard.
Cos-7 cells transiently expressing the gene encoding the novel rat NPFF1 receptor were used for pharmacological evaluation. […]

NPFF receptors = settings: at a concentration of 10 μM; spinal cord membranes; cited from earlier work
SNORF2 (NPFF1) = biological target: T2, SNORF2 (NPFF1) (Rattus norvegicus, UniProt Q9EP86); assay: Voltage-clamp electrophysiology in Xenopus oocytes expressing SNORF2 (NPFF1) and chimeric Gαq/z; type: cell-based; settings: for activation of oocytes injected with SNORF2 synthetic RNA: unrelated neuropeptides and neurotransmitters, concentration not given; for inward current response: 1 μM, oocytes with SNORF2 and Gαq/z, holding potential −80 mV
T2 construct: from linearized plasmids or PCR products containing the complete coding region of the genes; expressed in transfected cells; host or cells: Xenopus laevis oocytes injected with synthetic RNA
T2 sequence (Q9EP86 whole entry): as above
Description: (§2) Oocytes were harvested from Xenopus laevis and injected with mRNA transcripts as previously described (Quick and Lester, 1994; Smith et al., 1997). […] Three to eight hours prior to recording, oocytes were injected with 500 pg Gαq/z mRNA in order to observe coupling to Ca^++ activated Cl^− currents. Dual electrode voltage clamp (Axon Instruments Inc.) was performed using 3 M KCl-filled glass microelectrodes having resistances of 1–2 Mohm. Unless otherwise specified, oocytes were voltage clamped at a holding potential of −80 mV. During recordings, oocytes were bathed in continuously flowing (1–3 ml/min) medium containing 96 mM NaCl, 2 mM KCl, 1.8 mM CaCl2, 1 mM MgCl2, and 5 mM HEPES, pH 7.5 (ND96). Drugs were applied either by local perfusion from a […] glass capillary tube fixed at a distance of 0.5 mm from the oocyte, or by switching from a series of gravity fed perfusion lines.
Heterologous expression of GPCRs in Xenopus oocytes has been widely used to determine the identity of signaling pathways activated by agonist stimulation (Gundersen et al., 1983; Takahashi et al., 1987). Activation of the phospholipase C (PLC) pathway is assayed by applying test compound in ND96 solution to oocytes previously injected with mRNA for the mammalian receptor and observing inward currents at a holding potential of −80 mV. The appearance of currents that reverse at −25 mV and display other properties of the Ca^++-activated Cl^− (chloride) channel is indicative of mammalian receptor-activation of PLC and release of IP3 and intracellular Ca^++.
Control oocytes receiving only G-protein synthetic RNA were unresponsive to these peptides. […] Similarly, SNORF2-like was renamed NPFF-like.

[2] = biological target: rat spinal cord membrane receptor; assay: Radioligand binding to rat spinal cord membranes; settings: * marks difference from NPFF1
Description: Transfected cells from culture flasks are scraped into 5 ml of 20 mM Tris-HCl, 5 mM EDTA, pH 7.5, and lysed by sonication. The cell lysates are centrifuged at 1000 rpm for 5 min. at 4° C., and the supernatant is centrifuged at 30,000× g for 20 min. at 4° C. […] Optimal membrane suspension dilutions, defined as the protein concentration required to bind less than 10% of the added radioligand, are added to 96-well polpropylene microtiter plates containing ^3H-labeled compound, unlabeled compounds, and binding buffer to a final volume of 250 μl. In equilibrium saturation binding assays membrane preparations are incubated in the presence of increasing concentrations of [^3H]-labeled compound.
as §1
The binding profile of rat NPFF1 was compared to that of rat spinal cord membranes. […] (See * Table 2).

NPFF2 (hNPFF2) = biological target: T3, NPFF2 (hNPFF2) (Homo sapiens, UniProt Q9Y5X5); assay: Voltage-clamp electrophysiology in Xenopus oocytes expressing NPFF2 (NPFF-like) and chimeric Gαq/z; type: cell-based; settings: 1 μM; oocytes with NPFF2 (NPFF-like) mRNA and Gαq/z; −80 mV
T3 construct: BO89, was determined to be a full length clone with no point mutations; expressed in transfected cells; host or cells: Xenopus laevis oocytes injected with synthetic mRNA
T3 sequence (Q9Y5X5 103-522): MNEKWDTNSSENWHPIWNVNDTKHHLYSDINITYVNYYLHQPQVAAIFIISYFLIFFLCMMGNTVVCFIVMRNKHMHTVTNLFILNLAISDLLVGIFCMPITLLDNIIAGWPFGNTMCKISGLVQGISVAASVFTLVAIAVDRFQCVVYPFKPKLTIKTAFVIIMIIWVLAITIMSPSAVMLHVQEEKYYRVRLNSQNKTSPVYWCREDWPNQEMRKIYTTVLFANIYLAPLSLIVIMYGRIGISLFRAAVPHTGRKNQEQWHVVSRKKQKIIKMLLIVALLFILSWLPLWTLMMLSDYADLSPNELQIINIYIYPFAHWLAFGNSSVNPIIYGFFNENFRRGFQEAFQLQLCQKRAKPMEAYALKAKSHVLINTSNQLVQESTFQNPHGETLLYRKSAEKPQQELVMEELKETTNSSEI
Description: Electrophysiological responses in voltage-clamped oocytes expressing NPFF2 mRNA. […] Oocytes were clamped at a holding potential of −80 mV.
For expression of NPFF2, mRNA transcripts were generated as described for NPFF1, using PCR products from ligation reactions or linearized DNA from B089 as DNA templates. Oocytes were injected with 5–50 ng NPFF2 mRNA and incubated as previously described.
as §2

[3] = competition of [125I]D-Tyr-NPFF binding, transiently transfected COS-7 membranes, read-out: pKi for cloned rat NPFF1 receptor binding in COS-7 cells, MEAN (converted)
[4] = competition of [125I]D-Tyr-NPFF binding, transiently transfected COS-7 membranes

With `CC(C)C[C@@H](NC(=O)[C@H](N)Cc1ccc(O)cc1)C(=O)N[C@H](Cc1ccccc1)C(=O)N[C@@H](CCC(N)=O)C(=O)N1CCC[C@H]1C(=O)N[C@@H](CCC(N)=O)C(=O)N[C@@H](CCCNC(=N)N)C(=O)N[C@@H](Cc1ccccc1)C(N)=O` [(3D)Y8Fa] (H-[dY][dL][dF]QPQRF-NH2; N-terminus assumed) the Ki [1, 3] was 2.38 nM.

Molecule “YLFQPQRF-NH2 [Y8Fa] [listing 1 of 2 here]” has a Ki [1, 3] of 4.15 nM.

In the case of `CN1CC[C@]23c4c5ccc(O)c4O[C@H]2[C@@H](O)C=C[C@H]3[C@H]1C5` [morphine], the “inhibition of [125I](1DMe)Y8Fa binding” value (NPFF receptors) is given as “No inhibition”.

With “melanin concentrating hormone: unrelated neuropeptide” the “activation of oocytes injected with SNORF2 synthetic RNA” value (shortened to “activation of oocytes injected”) (SNORF2 (NPFF1)) was “failed to activate”.

With `NCCc1c[nH]c2ccc(O)cc12` [5-HT] the “activation of oocytes injected” value (SNORF2 (NPFF1)) was “failed to activate”.

In the case of substance P, the “pKi for rat spinal cord membrane receptor binding, MEAN” value [2] is listed as 5.000 and the “inhibition of [125I](1DMe)Y8Fa binding” value (NPFF receptors) is listed as “No inhibition”.

For `CSCC[C@H](NC(=O)[C@H](Cc1ccc(OS(=O)(=O)O)cc1)NC(=O)[C@@H](N)CC(=O)O)C(=O)NCC(=O)N[C@@H](Cc1c[nH]c2ccccc12)C(=O)N[C@@H](CCSC)C(=O)N[C@@H](CC(=O)O)C(=O)N[C@@H](Cc1ccccc1)C(N)=O` [CCK8], the “pKi for rat spinal cord membrane receptor binding, MEAN” value [2] was 5.000.

With AGEGLSSPYWSLAAPQRF-NH2 [[Y^9]A18Fa] the Ki [1, 3] was 27.7 nM and the inward current response (SNORF2 (NPFF1)) was “displayed activity”.

In the case of “YLFQPQRF-NH2 [Y8Fa] [listing 2 of 2 here]”, the inward current response (SNORF2 (NPFF1)) is reported as “displayed activity”.

With `N=C(N)NCCC[C@@H](N)C(=O)O` [D-arginine] the “pKi for cloned rat NPFF1 receptor binding in COS-7 cells, MEAN” value [1, 4] was 5.000 and the “pKi for rat spinal cord membrane receptor binding, MEAN” value [2] was 5.000.

In the case of PYY: unrelated neuropeptide, the “activation of oocytes injected” value (SNORF2 (NPFF1)) is reported as “failed to activate”.

With orexin B: unrelated neuropeptide the “activation of oocytes injected” value (SNORF2 (NPFF1)) was “failed to activate”.

In the case of `COc1ccc2c(c1)[nH]c1c(C)nccc12` [harmine], the “pKi for cloned rat NPFF1 receptor binding in COS-7 cells, MEAN” value [1, 4] is reported as 5.000 and the “pKi for rat spinal cord membrane receptor binding, MEAN” value [2] is reported as 5.000.

With PDVDHVFLRF-NH2 [SchistFLRF] the Ki [1] was 1100 nM.

In the case of NPY: unrelated neuropeptide, the inward current response (NPFF2 (hNPFF2)) is given as “failed to activate responses; also recorded: no response is observed” and the “inhibition of [125I](1DMe)Y8Fa binding” value (NPFF receptors) is given as “No inhibition”.

B1: CCK: unrelated neuropeptide (peptide, UniProt P06307 21-115, looked up)
Cholecystokinin: QPVPPADPAGSGLQRAEEAPRRQLRVSQRTDGESRAHLGALLARYIQQARKAPSGRMSIVKNLQNLDPSHRISDRDYMGWMDFGRRSAEEYEYPS
modifications: Cholecystokinin
notes: unrelated neuropeptide
In the case of B1, the “activation of oocytes injected” value (SNORF2 (NPFF1)) is reported as “failed to activate”.
